# Laboratory results: patent publication US12162888B2, “Carboxamides as ubiquitin-specific protease inhibitors” (Valo Early Discovery, Inc., priority 2018, dated 2024)
# Experiments:
# [1] = target: T1, USP28 (USP28-5(1-1077)-TEV-6*His; LifeSensors) (Homo sapiens, UniProt Q96RU2); assay: Ubiquitin-Rhodamine 110 Assay for USP28 Activity, Example A-1(b); type: biochemical
# T1 construct: construct USP28 (USP28-5(1-1077)-TEV-6*His; LifeSensors); TEV cleavage site (C); 6xHis (C); purchased LifeSensors
# T1 sequence (Q96RU2 1-1077): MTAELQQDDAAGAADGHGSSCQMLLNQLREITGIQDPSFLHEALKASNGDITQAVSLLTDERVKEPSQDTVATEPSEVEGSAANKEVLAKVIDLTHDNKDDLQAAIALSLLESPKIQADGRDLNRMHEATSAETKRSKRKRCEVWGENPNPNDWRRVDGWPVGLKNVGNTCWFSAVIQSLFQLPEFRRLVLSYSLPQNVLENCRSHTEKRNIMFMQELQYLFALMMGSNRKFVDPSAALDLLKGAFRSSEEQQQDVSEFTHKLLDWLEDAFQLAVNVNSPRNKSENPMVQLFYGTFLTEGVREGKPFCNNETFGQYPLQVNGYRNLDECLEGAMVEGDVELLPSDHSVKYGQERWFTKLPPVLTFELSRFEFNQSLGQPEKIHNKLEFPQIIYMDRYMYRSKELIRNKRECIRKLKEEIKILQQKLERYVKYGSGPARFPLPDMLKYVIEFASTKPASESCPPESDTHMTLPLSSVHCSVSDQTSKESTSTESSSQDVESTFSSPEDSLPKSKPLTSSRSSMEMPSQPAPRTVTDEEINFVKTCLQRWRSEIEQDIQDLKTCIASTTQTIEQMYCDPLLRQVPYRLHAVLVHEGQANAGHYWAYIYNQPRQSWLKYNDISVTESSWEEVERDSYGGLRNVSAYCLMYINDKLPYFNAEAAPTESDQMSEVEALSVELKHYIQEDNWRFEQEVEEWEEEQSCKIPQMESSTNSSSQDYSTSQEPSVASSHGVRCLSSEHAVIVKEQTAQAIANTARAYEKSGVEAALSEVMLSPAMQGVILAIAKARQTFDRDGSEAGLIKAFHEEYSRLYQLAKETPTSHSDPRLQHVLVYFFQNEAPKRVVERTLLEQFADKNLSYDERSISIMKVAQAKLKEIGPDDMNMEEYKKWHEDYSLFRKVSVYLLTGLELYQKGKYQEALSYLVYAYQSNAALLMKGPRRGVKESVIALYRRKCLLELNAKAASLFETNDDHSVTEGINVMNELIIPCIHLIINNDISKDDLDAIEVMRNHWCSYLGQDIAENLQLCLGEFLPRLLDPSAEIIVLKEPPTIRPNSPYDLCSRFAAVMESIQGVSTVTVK
# Method: Example A-1(b): Biochemical Assay: Ubiquitin-Rhodamine 110 Assay for USP28 Activity
# Each assay was performed in a final volume of 20 μL in assay buffer containing 20 mM Tris-HCl (pH 8.0, (1M Tris-HCl, pH 8.0 solution; Corning 46-031-CM)), 2 mM CaCl2 (1M Calcium Chloride solution; Sigma #21114) 2 mM BME (2-Mercaptoethanol; Sigma 63689-25ML-F), 0.01% Prionex (0.22 μM filtered, Sigma #G-0411), and 0.01% Triton X-100. Stock compound solutions were stored at −20° C. as 10 mM in DMSO. Up to 1 month prior to the assay, 2 mM test compounds were pre-dispensed into assay plates (Black, low volume; Corning #3820) and frozen at −20° C. Prestamped assay plates were allowed to come to room temperature on the day of the assay. For the screen, 100 nL of 2 mM was pre-dispensed for a final screening concentration of 10 μM (DMSO(fc)=0.5%). […] Plates were incubated stacked for 90 minutes at room temperature before fluorescence was read on the Envision (Excitation at 485 nm and Emission at 535 nm; Perkin Elmer) or on the PheraSTAR (Excitation at 485 nm and Emission at 535 nm; BMG Labtech).
# For follow-up studies, each assay was performed in a final volume of 15 μL in assay buffer containing 20 mM Tris-HCl (pH 8.0, (1M Tris-HCl, pH 8.0 solution; Corning 46-031-CM)), 3 mM BME (2-Mercaptoethanol; Sigma 63689-25ML-F), 0.03% BGG (0.22 μM filtered, Sigma, G7516-25G), and 0.01% Triton X-100 (Sigma, T9284-10L). Nanoliter quantities of either an 8-point or 10-point, 3-fold serial dilution in DMSO was pre-dispensed into assay plates (Perkin Elmer, ProxiPlate-384 F Plus, #) for a final test concentration of either 25 μM to 11 nM or 25 μM to 1.3 nM, respectively. Enzyme USP28, construct USP28 (USP28-5(1-1077)-TEV-6*His; LifeSensors) concentration and incubation times were optimized for the maximal signal-to-background while maintaining initial velocity conditions at a fixed substrate concentration. The final concentration of the enzyme in the assay was […]. Final substrate (Ub-Rh110; Ubiquitin-Rhodamine 110, R&D Systems #U-555) concentration was 25 nM with [Ub-Rh110]<<Km. 5 μL of 2× enzyme was added to assay plates (pre-stamped with compound) preincubated with USP28 for 30 minutes and then 5 μL of 2× Ub-Rh110 was added to assay plates. Plates were incubated stacked for 20 minutes at room temperature before 5 μL of stop solution was added (final concentration of 10 mM citric acid (Sigma, 251275-500G)). Fluorescence was read on the Envision (Excitation at 485 nm and Emission at 535 nm; Perkin Elmer) or on the PheraSTAR (Excitation at 485 nm and Emission at 535 nm; BMG Labtech).
# For assay formats Example A-1(a), A-1(b), and A-2, data were reported as percent inhibition compared with control wells based on the following equation: % inh=1−((FLU−AveLow)/(AveHigh−AveLow)) where FLU=measured Fluorescence, AveLow=average Fluorescence of no enzyme control (n=16), and AveHighh=average Fluorescence of DMSO control (n=16). IC50 values were determined by curve fitting of the standard 4 parameter logistic fitting algorithm included in the Activity Base software package: IDBS XE Designer Model 205. Data is fitted using the Levenburg Marquardt algorithm.
# [2] = target: T2, USP28 (His-tagged USP28-FL-mammalian) (Homo sapiens, UniProt Q96RU2); assay: Ubiquitin-Rhodamine 110 Assay for USP28 Activity, Example A-1(a); type: biochemical; details: Ubiquitin-Rhodamine 110 biochemical assay, read-out: USP28 A-1(a) IC50 range
# T2 construct: Expression of USP28 (1-1077)-TEV-6*His (pTT5 vector) was carried out in Expi293f cells; made in house; host or cells: Expi293F cells (pTT5 vector)
# T2 sequence (Q96RU2 1-1077): T1 sequence (Q96RU2 1-1077)
# Summary of the method: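 Full-length His-tagged human USP28 (1-1077), expressed in Expi293F cells, was used at […] with 25 nM Ub-Rh110 (<<Km) in 20 mM Tris pH 8.0, 3 mM BME, 0.03% BGG and 0.01% Triton X-100. Compounds (25 μM-1.3 nM, 10-point) were preincubated with enzyme for 30 min, and the reaction ran 45 min at room temperature before a citric acid stop. Fluorescence was read at 485/535 nm, and IC50 came from 4-parameter fits of percent inhibition.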
# [3] = Ubiquitin-Rhodamine 110 Assay for USP25 Activity, Example A-3; type: biochemical; details: Ubiquitin-Rhodamine 110 biochemical assay, Example A-1(b); read-out: USP28 A-1(b) IC50 range
# Summary of the method: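 USP25-His6 ([…] final as stated) preincubated 30 min with compound (10-point, 25 μM to 1.3 nM), then Ub-Rh110 at 25 nM (<<Km) added in pH 8.0 Tris buffer with BME, BGG and Triton X-100. Reaction stopped after 45 min at room temperature with 10 mM citric acid; fluorescence read at 485/535 nm.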
# [4] = test system: human eosinophil EOL-1 (DSMZ no. ACC 386) cells; assay: In Vivo Xenograft Studies, Example A-2; details: EOL-1 cells subcutaneous in flank of mice; first test compound 50-120 mg/kg orally or subcutaneously, second test compound 40 or 60 mg/kg orally twice per day; versus vehicle (FIG. 2)
# Method: Example A-2: In Vivo Xenograft Studies
# Mice were injected subcutaneously in the flank with human eosinophil EOL-1 (DSMZ no. ACC 386) cells (NCI). Injections with cells (circles, FIG. 2A) and with vehicle alone (triangles, FIG. 2B) were monitored, and when tumors reached a critical size (for example, about 1000 mm^3), mice were randomized into treatment groups, including vehicle control and reference standard groups. The groups, as shown in FIG. 2B are as follows: Group 1, vehicle administered orally every other day; Group 2, first test compound ((S)-amino-N-(5-fluoro-7-(piperazin-1-yl)chroman-3-yl)-6-methylthieno[2,3-b]pyridine-2-carboxamide) at 120 mg/kg, administered orally every other day; Group 3, first test compound at 80 mg/kg, administered orally every other day; Group 4, first test compound at 80 mg/kg, administered subcutaneously twice per day, every other day thereafter; Group 5, first test compound at 60 mg/kg, administered subcutaneously twice per day for four consecutive days, with no administration for three days. […] The mice were weighed and tumors measured using vernier calipers on indicated days. Tumor volume was calculated according to the formula (length×width^2)/2.
SMILES,USP28 A-1(b) IC50 range [1],IC50 [2],IC50 [3],"tumor growth (tumor volume, (length×width^2)/2) [4]"
"CCn1ccc2cc(C(=O)N[C@@H]3CCc4cc(N5CC6CCC(C5)N6)ccc4C3)nnc21 (single isomer, unassigned) [Example 11-23]",+ (“+”L>2 μM),–,–,–
"Cc1nc2sc(C(=O)N[C@H]3CCc4nc(N5C[C@@H](CF)[C@H](N)C5)ccc4C3)c(N)c2cc1F [Example 507, 3-amino-N-[(6S)-2-[(3S,4R)-3-amino-4-(fluoromethyl)pyrrolidin-1-yl]-5,6,7,8-tetrahydroquinolin-6-yl]-5-fluoro-6-methylthieno[2,3-b]pyridine-2-carboxamide]",–,0.05 to 0.2 µM,0.2 to 2 µM,–
"CO[C@H]1CN(c2ccc3c(n2)CC[C@H](NC(=O)c2sc4nc(C)cnc4c2N)C3)C[C@@H]1N [second test compound, 7-amino-N-[(6S)-2-[(3S,4S)-3-amino-4-methoxypyrrolidin-1-yl]-5,6,7,8-tetrahydroquinolin-6-yl]-3-methylthieno[2,3-b]pyrazine-6-carboxamide]",–,–,–,slowing of tumor growth over time
"CCN[C@@H]1CN(c2ccc3c(n2)CC[C@H](NC(=O)c2sc4nc(C)ccc4c2N)C3)C[C@H]1COC [Example 477, 3-amino-N-[(6S)-2-[(3S,4R)-3-(ethylamino)-4-(methoxymethyl)pyrrolidin-1-yl]-5,6,7,8-tetrahydroquinolin-6-yl]-6-methylthieno[2,3-b]pyridine-2-carboxamide]",–,0.05 to 0.2 µM,> 2 µM,–
"CCN[C@H]1CN(c2ccc3c(n2)CC[C@H](NC(=O)c2sc4nc(C)ccc4c2N)C3)C[C@@H]1COC [Example 476, 3-amino-N-[(6S)-2-[(3R,4S)-3-(ethylamino)-4-(methoxymethyl)pyrrolidin-1-yl]-5,6,7,8-tetrahydroquinolin-6-yl]-6-methylthieno[2,3-b]pyridine-2-carboxamide]",–,0.05 to 0.2 µM,> 2 µM,–
"Cc1ccc2c(N)c(C(=O)N[C@@H]3COc4cc(N5CCNCC5)cc(F)c4C3)sc2n1 [first test compound, (S)-amino-N-(5-fluoro-7-(piperazin-1-yl)chroman-3-yl)-6-methylthieno[2,3-b]pyridine-2-carboxamide]",–,–,–,slowing of tumor growth over time
"Cc1ccc2c(N)c(C(=O)N[C@H]3COc4cc(N5C[C@@H]6CNC[C@H]6C5)ccc4C3)sc2n1 [Example 43, 3-amino-N-((R)-7-((3aR,6aR)-hexahydropyrrolo[3,4-c]pyrrol-2(1H)-yi)chroman-3-yl)-6-methylthieno[2,3-b]pyridine-2-carboxamide]",+ (“+”L>2 μM),–,–,–
"CCn1ccc2cc(C(=O)N[C@H]3CCc4cc(N5CC6CCC(C5)N6)ccc4C3)nnc21 (single isomer, unassigned) [Example 11-24]",+ (“+”L>2 μM),–,–,–
"Cc1ccc2c(N)c(C(=O)N[C@H]3CCc4nc(N5CC[C@H](N)[C@H]5C(F)F)ccc4C3)sc2n1 [Example 479, 3-amino-N-[(6S)-2-[(2S,3S)-3-amino-2-(difluoromethyl)pyrrolidin-1-yl]-5,6,7,8-tetrahydroquinolin-6-yl]-6-methylthieno[2,3-b]pyridine-2-carboxamide]",–,0.001 to 0.05 µM,0.05 to 0.2 µM,–
"Cc1ccc2c(N)c(C(=O)N[C@H]3CCc4nc(N5CC[C@@H](N)[C@@H]5C(F)F)ccc4C3)sc2n1 [Example 478, 3-amino-N-[(6S)-2-[(2R,3R)-3-amino-2-(difluoromethyl)pyrrolidin-1-yl]-5,6,7,8-tetrahydroquinolin-6-yl]-6-methylthieno[2,3-b]pyridine-2-carboxamide]",–,0.05 to 0.2 µM,> 2 µM,–
